How the values were obtained:
[1] = system: tumor necrosis factor (α) (TNF-α); assay: Cytokine induction in human cells: TNF-α secreted by PBMC into culture media (ORIGEN M-Series immunoassay); assay type: cell-based; set-up: key to Maximal Response (pg/mL) TNF / Maximal Response TNF: If any negative values result from background subtraction, the reading is reported as “*”, and is noted as not reliably detectable; conditions: for Minimum Effective Concentration TNF / Maximal Response TNF: Table 11; for Minimum Effective Concentration TNF / Maximal Response TNF / minimal effective concentration: human PBMC; for Minimum Effective Concentration TNF: median where tested in more than one experiment; for Maximal Response TNF / Maximal Response (pg/mL) TNF: median; for Maximal Response TNF: * = TNF below experimental background of 40 pg/mL; for minimal effective concentration: lowest tested concentration inducing TNF-α over usually 40 pg/mL, median where more than one experiment, read-out: Minimum Effective Concentration (μM) TNF; for Maximal Response (pg/mL) TNF: maximal response in dose response curve
How it was run: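 Human donor PBMC (final 2×10^6 cells/mL) were incubated 18 to 24 hours at 37° C with compound, usually 30-0.014 μM in 3-fold steps, ≤1% DMSO. Supernatant TNF-α was measured by ORIGEN immunoassay, background-subtracted and reference-adjusted; minimum effective concentration was the lowest concentration exceeding a fixed cytokine threshold.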

interferon (α) (IFN-α) = assay: Cytokine induction in human cells: IFN-α secreted by PBMC into culture media (ELISA); assay type: cell-based; conditions: for Maximal Response IFN / Minimum Effective Concentration IFN: Table 11, median where tested in more than one experiment; for Maximal Response IFN / Minimum Effective Concentration IFN / minimal effective concentration: human PBMC; for minimal effective concentration: lowest tested concentration inducing IFN-α over usually 20 pg/mL, median where more than one experiment, read-out: Minimum Effective Concentration (μM) IFN; for Maximal Response (pg/mL) IFN: maximal response in dose response curve, median
How it was run: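 Human donor PBMC, 2×10^6 cells/mL final in RPMI complete, treated 18–24 h at 37 °C, 5% CO2 with 3-fold dilutions (usually 30-0.014 μM), DMSO ≤1%. Supernatant IFN-α by multi-subtype sandwich ELISA, background-subtracted and reference-adjusted; minimum effective concentration = lowest concentration exceeding usually 20 pg/mL.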

[2] = Table 10, * = below experimental background level
[3] = Table 7, background-subtracted, reference-adjusted

| SMILES | melting point [°C] | Minimum Effective Concentration TNF [1] [µM] | Maximal Response TNF [1] | Maximal Response IFN (interferon (α) (IFN-α)) [pg/mL] | Minimum Effective Concentration IFN (interferon (α) (IFN-α)) [µM] | further results |
| --- | --- | --- | --- | --- | --- | --- |
| CC(C)(O)Cn1c(CO)nc2c(N)nc3cc(OCc4cscn4)ccc3c21 [Example 187, 1-[4-Amino-2-hydroxymethyl-7-(thiazol-4-ylmethoxy)-1H-imidazo[4,5-c]quinolin-1-yl]-2-methylpropan-2-ol] | 260 to 262 | – | – | – | – | – |
| CC(=O)OCc1nc2c(N)nc3ccccc3c2n1CC(C)(C)O [Example 635, [4-Amino-1-(2-hydroxy-2-methylpropyl)-1H-imidazo[4,5-c]quinolin-2-yl]methyl acetate] | 203 to 205 | – | – | – | – | – |
| CC(=O)OCCc1nc2c(N)nc3ccccc3c2n1CC(C)C [Example 634, 2-(4-Amino-1-isobutyl-1H-imidazo[4,5-c]quinolin-2-yl)ethyl acetate] | 187 to 189 | – | – | – | – | – |
| CC(C)[C@H](N)C(=O)OCc1nc2c(N)nc3ccccc3c2n1CC(C)(C)O [Example 636, [4-Amino-1-(2-hydroxy-2-methylpropyl)-1H-imidazo[4,5-c]quinolin-2-yl]methyl L-valinate] | 190 to 192 | – | – | – | – | – |
| CCNC(=O)NCCn1c(CC)nc2c(N)nc3ccccc3c21 [Analog 103] | – | 10 | 3250 pg/mL | 1031 | 3.33 | – |
| CCOCc1nc2c(N)nc3ccccc3c2n1CCNC(=O)NC(C)C [Analog 125] | – | 10 | 7512 pg/mL | 2045 | 0.37 | – |
| CCOCc1nc2c(N)nc3cc(-c4cncc(CO)c4)ccc3c2n1CC(C)C [Analog 28] | – | – | – | – | – | minimal effective concentration ([1]; Table 10): 0.37 µM; Maximal Response (pg/mL) TNF [1, 2]: 3885 pg/mL; minimal effective concentration (interferon (α) (IFN-α); Table 10): 0.04 µM; Maximal Response (pg/mL) IFN (interferon (α) (IFN-α); [2]): 1263 pg/mL |
| CCOCc1nc2c(N)nc3cc(-c4ccccc4)ccc3c2n1CCCN1CCCC1=O [Analog 22] | – | – | – | – | – | minimal effective concentration ([1]; Table 10): 1.11 µM; Maximal Response (pg/mL) TNF [1, 2]: 62 pg/mL; minimal effective concentration (interferon (α) (IFN-α); Table 10): 0.37 µM; Maximal Response (pg/mL) IFN (interferon (α) (IFN-α); [2]): 1665 pg/mL |
| CS(=O)(=O)NCCCCn1c(CCO)nc2c(N)nc3ccccc3c21 [Example 3, N-{4-[4-Amino-2-(2-hydroxyethyl)-1H-imidazo[4,5-c]quinolin 1-yl]butyl}methanesulfonamide] | – | – | * | 2340 | – | – |
| Nc1nc2ccccc2c2c1nc(CCO)n2CCCCNC(=O)c1nccc2ccccc12 [Example 111] | – | 1.11 | 983 pg/mL | 7753 | 0.12 | – |
| COCCc1nc2c(N)nc3ccccc3c2n1CCCCNC(=O)N1CCOCC1 [Analog 57] | – | 0.04 | 3494 pg/mL | 8889 | 0.014 | – |
| CCCc1nc2c(N)nc3ccccc3c2n1CC(C)(C)NS(C)(=O)=O [Analog 3, N-[2-(4-Amino-2-propyl-1H-imidazo[4,5-c]quinolin-1-yl)-1,1-dimethylethyl]methanesulfonamide] | – | – | 9780 pg/mL | – | – | Maximal Response (pg/mL) TNF [1, 3]: 7245 pg/mL; Maximal Response (pg/mL) IFN (interferon (α) (IFN-α); [3]): 832 pg/mL |
